Reference: patent US5942537A, “Method of inhibiting the transport of L-glutamate to treat CNS disorders” (The Regents of the University of California, priority 1993, dated 1999)

Key:
[1] = target: T1, high affinity transport of 3H-L-glutamate into synaptosomes (Rattus norvegicus, UniProt P31596); experiment: Synaptosomal uptake of 3H-L-glutamate; type: biochemical; settings: 10 μM 3H-L-glutamate; for inhibition of glutamate transport (in words): isomers at similar concentrations (20 μM)
T1 construct: Synaptosomes were prepared by the procedure of Booth et al; from tissue; host or cells: brain synaptosomes (Ficoll/sucrose gradient)
Experimental: Synaptosomal uptake of ^3 H-L-glutamate (10 μM) was followed at 37° C. in the presence and absence of 20 μM PDC isomers. The curves shown are from representative experiments (n=2-4 rate determinations) and are reported as mean ±SD. Transport rates were determined by linear regression analysis and have been corrected for background and non-specific uptake. The effect of the PDC isomers and is reported as % of control transport rate ±SD (n=8-16 rate determinations).
(§1) The Synaptosomes were prepared by the procedure of (a) Booth, R. F. G.; Clark, J. B., Biochem J. 176, 365 (1978) and assayed for synaptosomal uptake as described by (b) Kuhar, M. M.; Zarbin, M. J., Neurochem 31, 251 (1978), both which are incorporated by reference herein. The binding specificities of the four PDC isomers were determined by testing both their ability to inhibit the high affinity transport of ^3 H-L-glutamate into synaptosomes and to block the binding of radioligands to each of the three receptor sites in a synaptic plasma membrane preparation (SPM) (Synaptic plasma membranes were prepared and NMDA receptor binding quantified as described by Monaghan, D. T.; Cotman, C. W., Proc. Nat. Acad. Sci. U.S.A. 83, 7532 (1986) incorporated by reference herein). When included in the ^3 H-L-glutamate uptake assay, as represented in FIG. 3, at only a 2-fold excess relative to L-glutamate (10 μM of ^3 H-L-glutamate vs. 20 μM of 7), the L-trans-2,4-PDC isomer reduced the rate of synaptosomal transport from control levels of 1.13 nmol min^-1 mg-protein^-1 to 0.16 nmol min^-1 mg-protein^-1. […] This selective inhibition by L-trans-2,4-PDCclearly delineates a preferred configurational and/or conformational relationship for binding to the glutamate uptake protein.
Synaptosomes were prepared by the procedure of Booth et al., (Biochem J. 176:365 (1978) incorporated by reference herein), using Ficoll/sucrose gradient centrifugation. Uptake of ^3 H-L-glutamate was followed essentially as described by Kuhar and Zarbin (J. Neurochem 31:[…] (1978) incorporated by reference herein.) Synaptosomes were suspended in a physiological buffer (Krebs-Ringer phosphate buffer) and preincubated at 37° C. for 5 min. The uptake assay was initiated by the addition of ^3 H-L-glutamate (0.1-100 μM). Aliquots were removed at appropriate times (0.5-10 min) and were rapidly filtered on GF/F glass fiber filters. The filters were rapidly washed with 20 volumes of ice cold buffer. Radioactivity present on the filters was determined by liquid scintillation counting. Uptake rates were corrected for both background (i.e., uptake at 0 min) and leakage (i.e., uptake at 0° C.).

QA receptors = experiment: 3H-AMPA binding to QA receptors in synaptic plasma membranes; parameters: species or system rat; settings: for ^3 H-AMPA binding to QA receptors, % of Control: diacid 100 μM, % of control binding ± s.d., corrected for nonspecific binding
Experimental: (§2) To further characterize the pharmacological specificity of the PDC conformers and identify other potential sites at which the transport inhibitor could bind, the compounds were tested for their ability to inhibit the binding of ^3 H-L-glutamate to NMDA receptors, ^3 H-KA binding to KA receptors, and ^3 H-AMPA (α-amino-3-hydroxy-5-methylisoxazole-4-propionic acid) binding to QA receptors. Binding to kainate receptors was quantified by the procedures of (a) Simon, J. R.; Contrera, J. F.; Kuhar, M. J., J. Neurochem 26, 141 (1976), and (b) London, E. D.; Coyle, J. T.; Molec. Pharm. 15, 492 (1979) which are incorporated by reference herein. Binding to quisqualate receptors (QA) were quantified as described by (c) Honore, T.; Lauridsen, J.; Krogsgaard-Larsen, P. J., Neurochem 1982, 38, 173, which are incorporated by reference herein. […] This lack of interaction with any of the excitatory receptors is in direct contrast with its potent inhibition of transport and identifies L-trans-2,4-PDC as a specific probe of the L-glutamate transport system.
(§3) Synaptic plasma membrane (SPMS) were prepared as previously described (Monaghan, D. T.; Cotman, C. W., Proc. Nat. Acad. Sci. U.S.A. 83:7532 (1986) incorporated by reference herein.) Briefly, male Sprague-Dawley rats (200 g) were decapitated, their forebrains were rapidly removed, and the brain tissue homogenized in 0.32M sucrose. Following differential centrifugation, a membrane fraction enriched in synapses, but low in myelin and mitochondria, was obtained. This membrane fraction was washed three times with […] Tris-acetate buffer, pH 7.2, and diluted into the appropriate assay buffer to about 200 μg protein/ml.
(§4) Binding to NMDA, KA, and QA receptors were quantified with ^3 H-L-glutamate, ^3 H-KA, and ^3 H-AMPA respectively. The binding assays were carried out using optimally selective conditions of time, temperature, and buffer for each of the three receptor classes. ^3 H-L-Glutamate binding was quantified under conditions that selectively label NMDA receptors. The SPMs were incubated with ^3 H-L-glutamate (10 nM, 50.9 Ci/mmol) in 50 mM Tris-acetate, pH 7.0, at 4° C. for 30 minutes. Non-specific binding was determined by the inclusion of 500 μM L-glutamate. KA receptors were quantified as previously described. ^3 H-KA (10 nM, 60 Ci/mmol) binding was determined in 50 mM Tris-citrate buffer, pH 7.0, at 4° C. for 30 min. Non-specific binding was determined by the inclusion of 100 μM unlabeled KA. QA receptors were measured with ^3 H-AMPA binding as described by Honore et al. J. Neurochem. 38:173-178 (1982). Essentially, 3 H-AMPA (10 nM, 27.6 Ci/mmol) binding is quantified in 50 mM Tris-acetate buffer, pH 7.2, containing 100 mM KSCN for 30 minutes at 4° C. Non-specific binding was determined by the inclusion of 100 μM quisqualic acid. In the inhibition studies, the conformationally defined analogues were included in the assay mixture at the appropriate concentrations (0.1-200 μM). The assays (total volume, 1.08 mL) were initiated by the addition of radiolabel and terminated by centrifugation (Beckman Microfuge, top speed, 3 min). Unbound radioligand in the supernatant was removed by suction and the radioactivity in the pellet quantified by liquid scintillation counting. All of the binding studies were carried out as 2 sets of triplicates within a single experiment and each experiment was repeated at least 3 times.

KA receptors = experiment: 3H-KA binding to KA receptors in synaptic plasma membranes; parameters: species or system rat; settings: for ^3 H-KA binding to KA receptors, % of Control: diacid 100 μM, % of control binding ± s.d., corrected for nonspecific binding
Experimental: as §2, §3, §4

NMDA receptors = experiment: 3H-L-glutamate binding to NMDA receptors in synaptic plasma membranes; parameters: species or system rat; settings: for ^3 H-L-GLU binding to NMDA receptors, % of Control: % of control binding ± s.d., corrected for nonspecific binding; for inhibition of ^3 H-L-glutamate binding to the NMDA receptor (in words): as reported in Table 1
Experimental: as §1, §2, §3
Binding to NMDA, KA, and QA receptors were quantified with ^3 H-L-glutamate, ^3 H-KA, and ^3 H-AMPA respectively. The binding assays were carried out using optimally selective conditions of time, temperature, and buffer for each of the three receptor classes. ^3 H-L-Glutamate binding was quantified under conditions that selectively label NMDA receptors. The SPMs were incubated with ^3 H-L-glutamate (10 nM, 50.9 Ci/mmol) in 50 mM Tris-acetate, pH 7.0, at 4° C. for 30 minutes. Non-specific binding was determined by the inclusion of 500 μM L-glutamate. KA receptors were quantified as previously described. ^3 H-KA (10 nM, 60 Ci/mmol) binding was determined in 50 mM Tris-citrate buffer, pH 7.0, at 4° C. for 30 min. Non-specific binding was determined by the inclusion of 100 μM unlabeled KA. QA receptors were measured with ^3 H-AMPA binding as described by Honore et al. J. Neurochem. 38:173-178 (1982). […]

T1 sequence (P31596 whole entry): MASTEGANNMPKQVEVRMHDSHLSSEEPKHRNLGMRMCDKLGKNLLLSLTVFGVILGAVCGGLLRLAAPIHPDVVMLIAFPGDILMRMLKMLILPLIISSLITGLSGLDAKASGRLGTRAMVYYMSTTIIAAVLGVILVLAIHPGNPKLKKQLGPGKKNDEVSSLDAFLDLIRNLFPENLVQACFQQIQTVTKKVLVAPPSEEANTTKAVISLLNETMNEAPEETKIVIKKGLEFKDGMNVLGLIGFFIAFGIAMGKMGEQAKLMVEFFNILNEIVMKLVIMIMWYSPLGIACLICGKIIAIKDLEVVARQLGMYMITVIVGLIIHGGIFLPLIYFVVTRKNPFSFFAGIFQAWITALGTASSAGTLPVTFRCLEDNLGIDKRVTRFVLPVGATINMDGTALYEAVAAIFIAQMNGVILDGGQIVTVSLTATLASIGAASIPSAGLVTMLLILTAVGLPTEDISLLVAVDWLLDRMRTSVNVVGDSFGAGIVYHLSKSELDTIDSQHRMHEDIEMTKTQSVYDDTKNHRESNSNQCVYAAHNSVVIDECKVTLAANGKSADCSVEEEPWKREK

SMILES	inhibition of glutamate transport (in words) [1]	^3 H-AMPA binding to QA receptors, % of Control (QA receptors)	^3 H-KA binding to KA receptors, % of Control (KA receptors)	^3 H-L-GLU binding to NMDA receptors, % of Control (NMDA receptors; diacid 100 μM)	rate of synaptosomal transport ([1]; 20 μM compound, 37° C., control level 1.13) [nmol min^-1 mg-protein^-1]	inhibition at 20 µM ([1]; 20 μM compound, read-out: reduction in the rate of uptake) [%]	inhibition of radioligand binding to QA receptors (in words) (QA receptors; compound in 10^4 -fold excess)	inhibition of radioligand binding to KA receptors (in words) (KA receptors; compound in 10^4 -fold excess)	inhibition of ^3 H-L-glutamate binding to the NMDA receptor (in words) (NMDA receptors)	^3 H-L-GLU binding to NMDA receptors, % of Control (NMDA receptors; diacid 20 μM)
O=C(O)[C@@H]1CN[C@H](C(=O)O)C1 [Diacid 4, cis-4-Carboxy-L-proline]	substantially less effective	102 ± 12 % of Control	100 ± 12 % of Control	89 ± 13 % of Control						
O=C(O)[C@H]1CN[C@H](C(=O)O)C1 [Diacid 7, trans-4-Carboxy-L-proline]	potent inhibitor	109 ± 13 % of Control	102 ± 10 % of Control	87 ± 10 % of Control	0.16	> 80	did not significantly inhibit	did not significantly inhibit	did not significantly inhibit	
O=C(O)[C@@H]1CN[C@@H](C(=O)O)C1 [Diacid 11, trans-4-Carboxy-D-proline]	substantially less effective	108 ± 11 % of Control	92 ± 6 % of Control	95 ± 12 % of Control					weakly inhibiting	
O=C(O)[C@H]1CN[C@@H](C(=O)O)C1 [Diacid 14, cis-4-Carboxy-D-proline]	substantially less effective	110 ± 9 % of Control	101 ± 6 % of Control	38 ± 12 % of Control						76 ± 5 % of Control
